Laboratory results from article PMC4762448 (Journal of biomolecular screening, 2011).
Where two headings read alike, the source gives them in different places.

Columns and labels:
[1] = biological target: Ls-AChBP (Lymnaea stagnalis, UniProt P58154); details: cited from earlier work
[2] = biological target: α1nAChR (Homo sapiens, UniProt P02708+Q07001); assay: LGIC-CNiFER membrane potential dye assay in HEK cells, α1nAChR; format: cell-based; details: 0.1 µM
[3] = biological target: T1, α7nAChR (Homo sapiens, UniProt P36544); assay: LGIC-CNiFER FRET calcium sensor assay in HEK cells, α7nAChR; format: cell-based
T1 sequence (P36544 23-502): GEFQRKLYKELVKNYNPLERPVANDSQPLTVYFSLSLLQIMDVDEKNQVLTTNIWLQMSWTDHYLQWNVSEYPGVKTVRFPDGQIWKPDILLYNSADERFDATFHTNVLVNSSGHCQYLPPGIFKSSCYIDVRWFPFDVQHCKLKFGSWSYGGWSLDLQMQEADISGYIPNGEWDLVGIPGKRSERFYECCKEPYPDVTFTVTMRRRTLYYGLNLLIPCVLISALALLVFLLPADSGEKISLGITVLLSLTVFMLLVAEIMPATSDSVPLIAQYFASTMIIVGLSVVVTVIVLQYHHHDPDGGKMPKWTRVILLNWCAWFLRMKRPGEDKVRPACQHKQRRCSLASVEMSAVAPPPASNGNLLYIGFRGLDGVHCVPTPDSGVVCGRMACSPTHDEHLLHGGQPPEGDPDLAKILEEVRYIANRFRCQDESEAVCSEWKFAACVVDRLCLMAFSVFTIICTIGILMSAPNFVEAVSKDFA

[4] = biological target: T1, α7nAChR; format: cell-based
[5] = biological target: AcY55W-AChBP (Aplysia californica, UniProt Q8WSF8, Y72W); assay: [3H] epibatidine competition scintillation proximity assay, AcY55W-AChBP; format: binding
Sequence of AcY55W-AChBP (Q8WSF8 18-236 Y72W limits assumed): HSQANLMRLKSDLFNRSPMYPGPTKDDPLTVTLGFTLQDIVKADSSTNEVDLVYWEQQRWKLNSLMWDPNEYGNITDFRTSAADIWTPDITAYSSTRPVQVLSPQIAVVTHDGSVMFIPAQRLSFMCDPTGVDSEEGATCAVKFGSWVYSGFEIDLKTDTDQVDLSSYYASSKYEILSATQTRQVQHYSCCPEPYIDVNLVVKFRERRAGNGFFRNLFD

[6] = tested on: AChBPs (Ls, Ac, and AcY55W); assay: [3H] epibatidine competition SPA, the three AChBPs together; format: binding; details: 10 μM of each compound
[7] = biological target: T2, Ac-AChBP (Aplysia californica, UniProt Q8WSF8); assay: [3H] epibatidine competition scintillation proximity assay, Ac-AChBP; format: binding
T2 sequence (Q8WSF8 18-236 limits assumed): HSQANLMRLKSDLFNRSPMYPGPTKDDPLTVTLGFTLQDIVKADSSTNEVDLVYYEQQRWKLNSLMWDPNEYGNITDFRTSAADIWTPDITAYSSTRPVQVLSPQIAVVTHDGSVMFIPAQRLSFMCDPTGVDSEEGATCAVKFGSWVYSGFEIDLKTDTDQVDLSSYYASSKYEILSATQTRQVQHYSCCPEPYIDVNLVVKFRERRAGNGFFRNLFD

[8] = biological target: T3, 5-HT3A (Homo sapiens, UniProt P46098); assay: LGIC-CNiFER FRET calcium sensor assay in HEK cells, 5-HT3A; format: cell-based; details: control at 0.1 μM
T3 sequence (P46098 24-478): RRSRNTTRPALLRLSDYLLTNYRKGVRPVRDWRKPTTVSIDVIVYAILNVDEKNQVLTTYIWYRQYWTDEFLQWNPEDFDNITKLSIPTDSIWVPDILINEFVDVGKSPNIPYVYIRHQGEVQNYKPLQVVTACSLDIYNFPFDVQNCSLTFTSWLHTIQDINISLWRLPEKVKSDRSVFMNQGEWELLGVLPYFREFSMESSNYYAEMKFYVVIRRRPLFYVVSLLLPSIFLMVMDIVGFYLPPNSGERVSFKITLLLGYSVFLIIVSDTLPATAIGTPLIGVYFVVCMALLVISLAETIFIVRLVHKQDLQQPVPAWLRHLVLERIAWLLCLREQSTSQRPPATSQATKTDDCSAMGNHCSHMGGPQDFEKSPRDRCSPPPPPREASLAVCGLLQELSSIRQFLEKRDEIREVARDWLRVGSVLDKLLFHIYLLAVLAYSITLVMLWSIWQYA

[9] = 125I-Bgt displacement assay; cited from earlier work

Sequence of Ls-AChBP (P58154 20-229 limits assumed): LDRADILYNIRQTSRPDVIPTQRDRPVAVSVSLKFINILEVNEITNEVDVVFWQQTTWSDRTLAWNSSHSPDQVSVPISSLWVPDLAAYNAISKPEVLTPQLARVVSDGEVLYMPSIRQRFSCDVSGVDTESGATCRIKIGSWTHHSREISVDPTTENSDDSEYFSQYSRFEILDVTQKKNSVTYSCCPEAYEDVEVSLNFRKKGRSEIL
Sequence of α1nAChR (P02708 21-457): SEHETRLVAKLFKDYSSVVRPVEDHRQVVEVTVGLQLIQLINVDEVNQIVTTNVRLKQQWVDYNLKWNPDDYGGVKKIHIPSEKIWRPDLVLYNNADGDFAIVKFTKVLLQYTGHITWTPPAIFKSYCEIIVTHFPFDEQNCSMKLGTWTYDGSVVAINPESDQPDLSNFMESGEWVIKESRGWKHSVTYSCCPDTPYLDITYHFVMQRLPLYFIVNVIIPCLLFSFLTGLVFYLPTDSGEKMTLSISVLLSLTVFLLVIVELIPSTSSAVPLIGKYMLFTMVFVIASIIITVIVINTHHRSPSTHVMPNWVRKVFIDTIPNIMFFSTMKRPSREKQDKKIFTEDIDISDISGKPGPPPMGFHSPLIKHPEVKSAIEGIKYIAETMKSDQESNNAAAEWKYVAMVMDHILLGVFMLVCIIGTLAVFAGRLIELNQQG
Sequence of α1nAChR (P11230 24-501 partner): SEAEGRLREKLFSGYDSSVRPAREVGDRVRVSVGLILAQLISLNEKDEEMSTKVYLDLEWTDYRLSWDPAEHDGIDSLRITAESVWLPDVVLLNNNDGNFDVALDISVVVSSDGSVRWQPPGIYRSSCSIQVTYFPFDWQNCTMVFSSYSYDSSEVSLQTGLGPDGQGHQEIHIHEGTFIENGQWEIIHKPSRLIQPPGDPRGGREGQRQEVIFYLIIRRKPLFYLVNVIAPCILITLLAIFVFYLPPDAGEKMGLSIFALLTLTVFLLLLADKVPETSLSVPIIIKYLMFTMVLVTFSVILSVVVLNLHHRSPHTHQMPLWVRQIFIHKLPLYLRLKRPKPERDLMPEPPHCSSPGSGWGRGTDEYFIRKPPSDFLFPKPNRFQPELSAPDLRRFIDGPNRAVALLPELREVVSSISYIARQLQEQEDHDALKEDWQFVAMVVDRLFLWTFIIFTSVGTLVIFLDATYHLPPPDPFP
Sequence of α1nAChR (Q07001 22-517): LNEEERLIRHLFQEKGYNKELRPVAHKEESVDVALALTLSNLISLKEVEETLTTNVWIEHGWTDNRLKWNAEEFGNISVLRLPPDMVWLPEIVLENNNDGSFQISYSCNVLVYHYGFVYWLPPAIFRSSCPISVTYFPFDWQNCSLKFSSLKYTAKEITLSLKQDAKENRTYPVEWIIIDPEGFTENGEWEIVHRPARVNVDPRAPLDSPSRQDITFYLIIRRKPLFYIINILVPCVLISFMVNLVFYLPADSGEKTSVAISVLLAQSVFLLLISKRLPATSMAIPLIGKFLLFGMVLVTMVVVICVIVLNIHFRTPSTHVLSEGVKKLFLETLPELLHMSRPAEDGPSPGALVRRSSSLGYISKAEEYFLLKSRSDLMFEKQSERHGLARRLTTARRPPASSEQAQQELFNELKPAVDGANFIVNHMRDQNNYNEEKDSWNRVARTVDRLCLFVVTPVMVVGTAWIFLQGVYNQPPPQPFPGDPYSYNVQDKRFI

## C[N+](C)(C)CCOC(N)=O [carbamylcholine]
[1]; isothermal titration calorimetry using Ls-AChBP
  Kd: 7580 nM

## α-Bungarotoxin
[2]
  percent inhibition, α1nAChR: 94 ± 0.8%

## CCN1C[C@]2(COC(=O)c3ccccc3N3C(=O)C[C@H](C)C3=O)CC[C@H](OC)[C@@]34[C@@H]5C[C@H]6[C@H](OC)[C@@H]5[C@](O)(C[C@@H]6OC)[C@@](O)([C@@H](OC)[C@H]23)[C@@H]14 [MLA, methyllycaconitine]
[3]; 1 µM
  percent inhibition, α7nAChR: 79 ± 6.4%
[4]
  inhibition of current response elicited by 100 μM ACh: completely inhibited

## C[N+]1(C)[C@@H]2CC[C@H]1C[C@@H](OC(=O)C(CO)c1ccccc1)C2 (stereo partly drawn) [Compound 10]
[5]
  Kd: 2010 ± 137 nM
[6]
  interference with the binding of [3H] epibatidine to BPs (screening): significant interference
[3]
  selectivity of antagonism among LGIC-CNiFERs: nonselective antagonists
[7]
  Kd: 882 ± 117 nM

## CN1[C@@H]2CC[C@H]1C[C@@H](OC(=O)c1c[nH]c3ccccc13)C2 [Tropocitron]
[8]
  percent inhibition, 5-HT3A: 96 ± 0.6%

## CC(=O)OCC[N+](C)(C)C [ACh, acetylcholine]
[1]
  Kd: 823 nM
[9]
  pKd: 5.5

## CN1CCC[C@H]1c1cccnc1 [nicotine]
[9]
  pKd: 7.2
